Measurements taken from patent US9351983B2, “Use of glycerophosphoinositols for the treatment of septic shock” (CONSIGLIO NAZIONALE DELLE RICERCHE, priority 2012, dated 2016).

What was measured:
Type in all cases: cell-based, human
[1] = system: LPS-induced tissue-factor gene expression; test: Real-time RT-PCR of tissue factor mRNA in LPS-stimulated monocytes; conditions: 300 μM, 0.1 μg/ml LPS for 24 h (chronic)
Description: FIG. 3—The glycerophosphoinositols inhibit LPS-induced tissue-factor gene expression. Freshly isolated human monocytes were incubated at 37° C. for 20 min without or with 300 μM GroPIns or GroPIns4P, and for a further 1.5 h or 24 h in the absence and presence of 0.1 μg/ml LPS. At each time point, the total RNA was extracted from cells by the thiocyanate/caesium chloride method and converted to cDNA. Real-time PCR measurements of tissue factor were performed using validated primers. GAPDH served as the house-keeping gene. Each sample was measured in triplicate and the data were calculated with the delta-delta method (2-DDCT) for comparing relative expression data. Monocytes incubated alone for different times were considered the control sample. Measurements of mRNA levels were expressed as fold-increase over control, and are means (±SD) of triplicates from one experiment that is representative of 4 experiments performed with cells from different donors (*p=0.016; **p=0.0052). […]
(§1) One μg total RNA (extracted through thiocyanate/caesium chloride method) was converted to cDNA using Moloney murine leukaemia virus reverse transcriptase (Applied Biosystems, Italy). […] Each sample was measured in triplicate and the data were analysed with the SDS 2.0 software (Applied Biosystems, Italy) by the delta-delta method (2-DDCT) for comparing relative expression results. […]

[2] = system: LPS-mediated gene transcription of IL-1β; test: Real-time RT-PCR of IL-1β mRNA in LPS-stimulated monocytes; conditions: 300 μM, 0.1 μg/ml LPS for 1.5 h or 24 h
Description: (§2) FIG. 4—The glycerophosphoinositols inhibit LPS-mediated gene transcription of TNFα, IL-1β and COX-2. Human monocytes were purified from peripheral blood and incubated at 37° C. for 20 min without or with 300 μM GroPIns or GroPIns4P, and for an additional 1.5 h or 24 h in the absence and presence of 0.1 μg/ml LPS from E. coli. At each time point, RNA was extracted and converted to cDNA for real-time PCR analysis of TNFα, IL-1β and COX-2. Each sample was measured in triplicate and the data were calculated using the delta-delta method (2-DDCT). Transcription of the house-keeping gene GAPDH was used to normalise the data. Measurements of mRNA levels were expressed as fold-increase over the respective control (unstimulated) cells, and are means (±SD) of triplicates from one representative experiment of 4 experiments performed with cells from different donors. Asterisks indicate statistically significant differences (*p<0.0485; **p<0.0092).
as §1

[3] = system: LPS-induced degradation of I-κBα; test: Western blotting of I-κBα in LPS-stimulated monocytes; conditions: 300 μM, 0.1 μg/ml LPS for 1 h
Description: Monocytes were incubated at 37° C. for 20 min without or with 300 μM GroPIns or GroPIns4P, and for a further 1 h in the absence and presence of 0.1 μg/ml LPS. After stimulation, the cells were lysed and expression levels of I-κBα were analysed. Proteins were resolved using 10% SDS-PAGE and were probed by Western blotting, using a polyclonal anti-I-κBα antibody. The data are representative of four experiments performed with monocytes isolated from peripheral blood of different donors.
Protein extracts were analysed by Western blotting by the following procedures. The nitrocellulose filters containing the proteins of interest were incubated in the blocking solution for Western blotting plus 3% bovine serum albumin (BSA) or 5% milk powder (Fluka, Switzerland) for 1 h at room temperature, and then with the primary antibody diluted to its working concentration (see Table 2) in the blocking solution for Western blotting (plus BSA or milk powder). After a 2-4 h incubation at room temperature, or an overnight (O/N) incubation at 4° C., the antibody was removed and the strips were washed twice in Tween®/Tris-buffered salt solution (TTBS), for 15 min each. […] After washing the strips were incubated with the enhanced luminescence (ECL) reagents (Amersham Pharmacia Biotech, NJ, USA), according to the manufacturer instructions, and protein signals were detect by autoradiography using Kodak film.

[4] = system: LPS-mediated gene transcription of COX-2; test: Real-time RT-PCR of COX-2 mRNA in LPS-stimulated monocytes; conditions: 300 μM, 0.1 μg/ml LPS for 1.5 h or 24 h
Description: as §2, §1

[5] = system: LPS-mediated gene transcription of TNFα; test: Real-time RT-PCR of TNFα mRNA in LPS-stimulated monocytes; conditions: 300 μM, 0.1 μg/ml LPS for 1.5 h or 24 h
Description: as §2, §1

Compound | inhibition of LPS-induced tissue factor mRNA levels [1] | effect on LPS-induced IL-1β mRNA expression [2] | effect on LPS-induced degradation of I-κBα [3] | effect on LPS-induced COX-2 mRNA expression [4] | effect on LPS-induced TNFα mRNA expression [5]
O=P(O)(O)OC1[C@@H](O)[C@H](O)C(OP(=O)(O)OCC(O)CO)[C@@H](O)[C@H]1O (stereo partly shown) [GroPIns4P, glycerophosphoinositol 4-phosphate] | completely ineffective | inhibited the effects of LPS on expression of all of the genes analysed | did not affect this LPS activity | inhibited the effects of LPS on expression of all of the genes analysed | inhibited the effects of LPS on expression of all of the genes analysed
O=P(O)(OCC(O)CO)OC1C(O)C(O)C(O)C(O)C1O (stereo not shown) [GroPIns, glycerophosphoinositol] | ~60% | inhibited the effects of LPS on expression of all of the genes analysed | did not affect this LPS activity | inhibited the effects of LPS on expression of all of the genes analysed | inhibited the effects of LPS on expression of all of the genes analysed
